Data reported in US10106558B2, “Azolobenzazine compounds, compositions comprising these compounds and their use for controlling invertebrate pests” (BASF SE, priority 2015, dated 2018).

Experiments:
Assay type in all cases: in vivo
[1] = tested on: vetch aphid (Megoura viciae); experiment: Action on vetch aphid, broad bean leaf disks in 24-well microtiter plates; conditions: foliar, 120 h, adult aphids on treated leaf disks, 5 days, read-out: mortality in comparison with untreated controls
Protocol: Example B7: Action on Vetch Aphid (Megoura viciae)
For evaluating control of vetch aphid (Megoura viciae) through contact or systemic means the test unit consisted of 24-well-microtiter plates containing broad bean leaf disks.
The compounds were formulated using a solution containing 75% v/v water and 25% v/v DMSO. Different concentrations of formulated compounds were sprayed onto the leaf disks at 2.5 μl, using a custom built micro atomizer, at two replications.
After application, the leaf disks were air-dried and 5-8 adult aphids placed on the leaf disks inside the microtiter plate wells. The aphids were then allowed to suck on the treated leaf disks and incubated at about 23±1° C. and about 50±5% relative humidity for 5 days. Aphid mortality and fecundity was then visually assessed.

[2] = tested on: green peach aphid (Myzus persicae) (mixed life stages); experiment: Action on green peach aphid, liquid artificial diet under artificial membrane; conditions: 72 h, 800 ppm, adult aphids on treated aphid diet, 3 days, read-out: mortality in comparison with untreated controls
From the text: Example B8: Action on Green Peach Aphid (Myzus persicae) (Mixed Life Stages)
For evaluating control of green peach aphid (Myzus persicae) through systemic means the test unit consisted of 96-well-microtiter plates containing liquid artificial diet under an artificial membrane.
The compounds were formulated using a solution containing 75% v/v water and 25% v/v DMSO. Different concentrations of formulated compounds were pipetted into the aphid diet, using a custom built pipetter, at two replications.
After application, 5-8 adult aphids were placed on the artificial membrane inside the microtiter plate wells. The aphids were then allowed to suck on the treated aphid diet and incubated at about 23±1° C. and about 50±5% relative humidity for 3 days. Aphid mortality and fecundity was then visually assessed.

[3] = tested on: yellow fever mosquito (Aedes aegypti); experiment: whole plant or invertebrate; conditions: 48 h, larval mortality visually assessed after 2 days, read-out: mortality in comparison with untreated controls
Method in brief: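 Freshly hatched larvae (5-15 per well) held in 200 μl tap water; compounds formulated in 25% DMSO/water and 2.5 μl sprayed at several concentrations, two replicates. Plates kept 2 days at 28 °C, 80% RH, then larval mortality scored visually.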

Measured: mortality at 800 ppm

Cc1ccc(C(C)C)c(N2C(=O)CS/C2=N\N=C\c2ccc3c(ccc4c3ncn4-c3ccc(OC(F)(F)F)cc3)n2)c1 [Compound C-6, (2Z)-3-(2-isopropyl-5-methyl-phenyl)-2-[(E)-[3-[4-(trifluoromethoxy)phenyl]imidazo[4,5-f]quinolin-7-yl]methylenehydrazono]thiazolidin-4-one]
≥ 75%: all assays above
